Source: patent US5789405A, “Oxaspiro(2,5)octane derivative” (Fujisawa Pharmaceutical Co., Ltd., priority 1988, dated 1998)
In brackets after ≈: the same amount, converted by molar mass.

Tested on: Endothelial cells from human umbilical vein (HUVEC)
Assay: Test effect on endothelial cell growth (HUVEC proliferation, MTT method)
Type: cell-based
Conditions: 120 h, 5 days incubation at 37° C., graphically determined, read-out: IC50 (50% inhibition doses of the test compound to endothelial cell growth)
Description: Test effect of the object compound (I) on endothelial cell growth
Endothelial cells from human umbilical vein (HUVEC) were used for this experiment.
HUVEC (2×10^3 cells per well) were plated on 96 wells microtiter plates previously coated with human fibronectin and incubated with MCDB 151 [GIBCO] medium supplemented with 15% FBS (fetal bovine serum), […] ECGS (Endothelial cell growth supplement), 10 μg/ml heparin in the presence of the test compound at 37° C. under 5% CO2 in the air for 5 days. At the end of the experiments, the growth rate of HUVEC was measured according to the MTT method [Cancer treatment Reports 71, 1141~1149 (1987)].
IC50 values [50% inhibition doses of the test compound to endothelial cell growth) of the test compound were graphically determined and are shown in the following table.

Row | Compound | IC50
1 | CNC(=O)OC1CCC2(CO2)C(C2(C)OC2CC=C(C)C)C1OC (centres unmarked) | 0.21 ng/mL (≈ 0.619 nM)
2 | COC1C(OC(=O)N2CCOCC2)CCC2(CO2)C1C1(C)OC1CC=C(C)C (centres unmarked) | 0.62 ng/mL (≈ 1.57 nM)
